ChEMBL document CHEMBL3885881, “DrugMatrix”

Species: Rattus norvegicus
Assay: DrugMatrix - Regimen: Daily Repeat
Assay type: toxicity, organism-based, Sprague-Dawley
Parameters: regimen Daily Repeat, gender Male, age 6-8 weeks
Settings: in vivo, po, route oral GAVAGE, vehicle 100 % WATER; for BASOPHIL / EOSINOPHIL / ERYTHROCYTE COUNT / HEMATOCRIT / HEMOGLOBIN / LEUKOCYTE COUNT / LYMPHOCYTE / MEAN CORPUSCULAR HEMOGLOBIN / MEAN CORPUSCULAR HEMOGLOBIN CONCENTRATION / MEAN CORPUSCULAR VOLUME / MONOCYTE / NEUTROPHIL / PLATELET COUNT: tissue Blood; for ALANINE AMINOTRANSFERASE / ALBUMIN / ALKALINE PHOSPHATASE / ASPARTATE AMINOTRANSFERASE / BLOOD UREA NITROGEN / CHLORIDE / CHOLESTEROL / CREATINE PHOSPHOKINASE / CREATININE / GLUCOSE / PHOSPHORUS / POTASSIUM / SODIUM / TOTAL BILIRUBIN / TOTAL PROTEIN: tissue Plasma
[1] = 8 mg/kg, 120 h, dose level Low, time 5 day
[2] = 29 mg/kg, 72 h, dose level High, time 3 day
[3] = 29 mg/kg, 120 h, dose level High, time 5 day

CCN[C@@H](C)Cc1cccc(C(F)(F)F)c1 [DEXFENFLURAMINE]
BASOPHIL [1]: 0%
EOSINOPHIL [1]: 0%
ERYTHROCYTE COUNT [1]: 6.17 x10E6/uL
HEMATOCRIT [1]: 36.97%
HEMOGLOBIN [1]: 14.47 G/DL
LEUKOCYTE COUNT [1]: 12.77 x10E3/uL
LYMPHOCYTE [1]: 91.67%
MEAN CORPUSCULAR HEMOGLOBIN [1]: 23.5 pg
MEAN CORPUSCULAR HEMOGLOBIN CONCENTRATION [1]: 39.13 G/DL
MEAN CORPUSCULAR VOLUME [1]: 60 fL
MONOCYTE [1]: 1.67%
NEUTROPHIL [1]: 6.67%
PLATELET COUNT [1]: 1202.33 x10E3/uL
ALANINE AMINOTRANSFERASE [1]: 37 u/L
ALBUMIN [1]: 3.83 G/DL
ALKALINE PHOSPHATASE [1]: 391.67 u/L
ASPARTATE AMINOTRANSFERASE [1]: 62.67 u/L
BLOOD UREA NITROGEN [1]: 14 mg/dL
CHLORIDE [1]: 102.67 MEQ/L
CHOLESTEROL [1]: 62.67 mg/dL
CREATINE PHOSPHOKINASE [1]: 107 u/L
CREATININE [1]: 0.6 mg/dL
GLUCOSE [1]: 196.67 mg/dL
PHOSPHORUS [1]: 12.6 mg/dL
POTASSIUM [1]: 7.37 MEQ/L
SODIUM [1]: 148.67 MEQ/L
TOTAL BILIRUBIN [1]: 0.53 mg/dL
TOTAL PROTEIN [1]: 7 G/DL
BASOPHIL [2]: 0%
EOSINOPHIL [2]: 0.33%
ERYTHROCYTE COUNT [2]: 6.47 x10E6/uL
HEMATOCRIT [2]: 37.87%
HEMOGLOBIN [2]: 15.5 G/DL
LEUKOCYTE COUNT [2]: 12.63 x10E3/uL
LYMPHOCYTE [2]: 88%
MEAN CORPUSCULAR HEMOGLOBIN [2]: 24.03 pg
MEAN CORPUSCULAR HEMOGLOBIN CONCENTRATION [2]: 41 G/DL
MEAN CORPUSCULAR VOLUME [2]: 58.6 fL
MONOCYTE [2]: 2%
NEUTROPHIL [2]: 9.67%
PLATELET COUNT [2]: 1385.67 x10E3/uL
ALANINE AMINOTRANSFERASE [2]: 27 u/L
ALBUMIN [2]: 3.7 G/DL
ALKALINE PHOSPHATASE [2]: 285.67 u/L
ASPARTATE AMINOTRANSFERASE [2]: 55.33 u/L
BLOOD UREA NITROGEN [2]: 13 mg/dL
CHLORIDE [2]: 102 MEQ/L
CHOLESTEROL [2]: 63.67 mg/dL
CREATINE PHOSPHOKINASE [2]: 119.67 u/L
CREATININE [2]: 0.7 mg/dL
GLUCOSE [2]: 160 mg/dL
PHOSPHORUS [2]: 10.57 mg/dL
POTASSIUM [2]: 6.47 MEQ/L
SODIUM [2]: 151 MEQ/L
TOTAL BILIRUBIN [2]: 0.47 mg/dL
TOTAL PROTEIN [2]: 6.57 G/DL
BASOPHIL [3]: 0%
EOSINOPHIL [3]: 0%
ERYTHROCYTE COUNT [3]: 6.71 x10E6/uL
HEMATOCRIT [3]: 38.87%
HEMOGLOBIN [3]: 15.1 G/DL
LEUKOCYTE COUNT [3]: 11.3 x10E3/uL
LYMPHOCYTE [3]: 92.67%
MEAN CORPUSCULAR HEMOGLOBIN [3]: 22.53 pg
MEAN CORPUSCULAR HEMOGLOBIN CONCENTRATION [3]: 38.9 G/DL
MEAN CORPUSCULAR VOLUME [3]: 58 fL
MONOCYTE [3]: 1.67%
NEUTROPHIL [3]: 5.67%
PLATELET COUNT [3]: 1314.33 x10E3/uL
ALANINE AMINOTRANSFERASE [3]: 33.67 u/L
ALBUMIN [3]: 3.67 G/DL
ALKALINE PHOSPHATASE [3]: 333.67 u/L
ASPARTATE AMINOTRANSFERASE [3]: 57.67 u/L
BLOOD UREA NITROGEN [3]: 15 mg/dL
CHLORIDE [3]: 101 MEQ/L
CHOLESTEROL [3]: 66.67 mg/dL
CREATINE PHOSPHOKINASE [3]: 104.67 u/L
CREATININE [3]: 0.6 mg/dL
GLUCOSE [3]: 197.33 mg/dL
PHOSPHORUS [3]: 12.47 mg/dL
POTASSIUM [3]: 6.47 MEQ/L
SODIUM [3]: 149.67 MEQ/L
TOTAL BILIRUBIN [3]: 0.33 mg/dL
TOTAL PROTEIN [3]: 6.57 G/DL
